Assay [1] concerns the target T1, AHR (Mus musculus, UniProt P30561).
T1 sequence (P30561 1-848 P471L/N533S/M589L): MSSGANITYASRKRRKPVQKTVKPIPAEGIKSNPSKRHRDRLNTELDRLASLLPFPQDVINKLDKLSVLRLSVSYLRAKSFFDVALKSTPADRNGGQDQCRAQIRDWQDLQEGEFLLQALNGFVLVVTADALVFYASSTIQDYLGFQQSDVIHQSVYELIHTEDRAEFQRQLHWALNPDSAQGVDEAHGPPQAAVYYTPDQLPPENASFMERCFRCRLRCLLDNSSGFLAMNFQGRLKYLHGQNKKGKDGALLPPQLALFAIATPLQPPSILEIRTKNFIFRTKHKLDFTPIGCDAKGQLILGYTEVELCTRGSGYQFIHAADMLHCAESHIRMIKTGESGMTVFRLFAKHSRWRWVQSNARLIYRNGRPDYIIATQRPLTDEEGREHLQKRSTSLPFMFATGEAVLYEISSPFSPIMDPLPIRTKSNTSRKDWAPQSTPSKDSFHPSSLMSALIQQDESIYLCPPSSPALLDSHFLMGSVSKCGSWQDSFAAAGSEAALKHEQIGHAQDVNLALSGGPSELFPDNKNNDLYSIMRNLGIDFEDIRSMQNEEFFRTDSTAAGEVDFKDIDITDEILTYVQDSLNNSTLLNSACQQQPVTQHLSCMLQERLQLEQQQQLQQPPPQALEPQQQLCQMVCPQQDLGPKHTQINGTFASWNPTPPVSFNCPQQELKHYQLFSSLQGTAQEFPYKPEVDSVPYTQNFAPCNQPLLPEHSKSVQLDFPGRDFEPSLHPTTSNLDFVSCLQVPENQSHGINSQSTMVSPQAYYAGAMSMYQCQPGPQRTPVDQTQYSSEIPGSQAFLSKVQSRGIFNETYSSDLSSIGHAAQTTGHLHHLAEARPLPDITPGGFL
As to the kind of experiment: In vitro assay 3: antagonism in mouse cell line (AHR transactivation, firefly luciferase reporter, kynurenic acid prestimulated). Format: cell-based. As to conditions: mouse Hepa 1c1c7 cells, 200 μM kynurenic acid, 20 hours, read-out: AHR Antagonism Mouse IC50. The procedure, abridged:
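Mouse cells stably carrying a DRE-driven, AHR-inducible firefly luciferase reporter were prestimulated with the endogenous agonist kynurenic acid before compound addition. Luciferase activity was measured by luminescence and normalized to positive and negative controls, with cells lacking kynurenic acid serving as full-inhibition control. Repeat tests are reported as mean or median.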
Background: A reporter such as luciferase makes a cellular process visible.

The target of assay [2] is T2, AHR (Homo sapiens, UniProt P35869).
T2 construct: U87 MG glioblastoma cells (ATCC #HTB-14) endogenously expressing AHR; endogenous in cells; host or cells: U87 MG glioblastoma cells (ATCC #HTB-14)
T2 sequence (P35869 11-848): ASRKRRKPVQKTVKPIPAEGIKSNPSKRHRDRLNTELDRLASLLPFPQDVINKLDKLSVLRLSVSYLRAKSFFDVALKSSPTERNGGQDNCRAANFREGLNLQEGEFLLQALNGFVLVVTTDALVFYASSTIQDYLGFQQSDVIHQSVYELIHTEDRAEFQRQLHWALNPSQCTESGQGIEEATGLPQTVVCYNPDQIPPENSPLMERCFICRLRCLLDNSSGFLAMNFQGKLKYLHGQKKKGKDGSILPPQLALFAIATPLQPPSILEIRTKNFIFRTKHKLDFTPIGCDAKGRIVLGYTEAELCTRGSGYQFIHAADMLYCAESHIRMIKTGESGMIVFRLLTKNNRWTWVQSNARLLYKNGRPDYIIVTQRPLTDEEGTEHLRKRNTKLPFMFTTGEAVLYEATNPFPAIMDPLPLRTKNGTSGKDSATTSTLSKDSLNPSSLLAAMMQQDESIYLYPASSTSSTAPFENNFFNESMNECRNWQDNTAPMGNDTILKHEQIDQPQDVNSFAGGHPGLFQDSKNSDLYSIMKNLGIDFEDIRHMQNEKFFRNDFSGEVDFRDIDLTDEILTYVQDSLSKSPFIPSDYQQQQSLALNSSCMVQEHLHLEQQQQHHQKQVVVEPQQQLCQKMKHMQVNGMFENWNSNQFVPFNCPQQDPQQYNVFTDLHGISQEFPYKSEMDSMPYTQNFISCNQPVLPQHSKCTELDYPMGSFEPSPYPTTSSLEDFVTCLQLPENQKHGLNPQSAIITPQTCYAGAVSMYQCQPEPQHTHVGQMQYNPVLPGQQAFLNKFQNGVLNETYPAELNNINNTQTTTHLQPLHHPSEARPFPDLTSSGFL
The assay is described as follows: In vitro assay 1: antagonism in human cell line (AHR transactivation, firefly luciferase reporter, kynurenic acid prestimulated). Format: cell-based. The note with it: AHR Antagonism Human IC50 [M]. The essentials: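 U87 MG + DRE-firefly/constitutive-Renilla stable reporters; kynurenic acid prestim; dual-luc read; Renilla = tox; normalized vs pos/neg controls (pos: 150 μM KYNA + 5 μM staurosporine).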

The term IC50 denotes the concentration that inhibits the measured activity by half. Regarding `Cc1cc(C(F)F)c2nc(N[C@@H]3CCCCNC3=O)n3nc(-c4cnn(C)c4)nc3c2c1` [Example 406, (3R)-3-{[7-(difluoromethyl)-9-methyl-2-(1-methyl-1H-pyrazol-4-yl)[1,2,4]triazolo[1,5-c]quinazolin-5-yl]amino}azepan-2-one], the values for the concentration for half-maximal inhibition (IC50) in assay [1] and in assay [2] were 7.75 µM and 1.01e-07 M, respectively.

On to `Cc1ccc2nc(N[C@@H]3CCCCNC3=O)n3nc(-c4cn(C)nc4C(F)(F)F)nc3c2c1` [Example 407, (3R)-3-({9-methyl-2-[1-methyl-3-(trifluoromethyl)-1H-pyrazol-4-yl][1,2,4]triazolo[1,5-c]quinazolin-5-yl}amino)azepan-2-one], for which the IC50 in assay [1] came to 0.246 µM; in assay [2], 3.1e-07 M.

Take `CN(C)c1cccc(-c2nc3c4ccccc4nc(N[C@@H]4CNCCNC4=O)n3n2)c1` [Example 408, (6R)-6-({2-[3-(dimethylamino)phenyl][1,2,4]triazolo[1,5-c]quinazolin-5-yl}amino)-1,4-diazepan-5-one]: the IC50 in assay [1] came to 0.0136 µM; in assay [2], 1.85e-07 M.

With `COc1ccc(-c2nc3c4ccccc4nc(N[C@@H]4CNCCNC4=O)n3n2)cc1OC` [Example 409, (6R)-6-{[2-(3,4-dimethoxyphenyl)[1,2,4]triazolo[1,5-c]quinazolin-5-yl]amino}-1,4-diazepan-5-one], the results for the IC50 in assay [1] and in assay [2] were 0.0171 µM and 6.98e-08 M, respectively.

As for `COc1ccc(-c2nc3c4ccccc4nc(N[C@@H]4CNCCNC4=O)n3n2)c(C)c1` [Example 410, (6R)-6-{[2-(4-methoxy-2-methylphenyl)[1,2,4]triazolo[1,5-c]quinazolin-5-yl]amino}-1,4-diazepan-5-one], the IC50 amounted to 0.00473 µM in assay [1] and 1.53e-08 M in assay [2].

`O=C1NCCNC[C@H]1Nc1nc2ccccc2c2nc(-c3ccc(OC4CC4)cc3)nn12` [Example 411, (6R)-6-({2-[4-(cyclopropyloxy)phenyl][1,2,4]triazolo[1,5-c]quinazolin-5-yl}amino)-1,4-diazepan-5-one]: the concentration for half-maximal inhibition (IC50) turned out to be 0.0112 µM in assay [1] and 1.77e-07 M in assay [2].

In the case of `O=C1NCCNC[C@H]1Nc1nc2ccccc2c2nc(-c3ccc(Br)o3)nn12` [Example 412, (6R)-6-{[2-(5-bromofuran-2-yl)[1,2,4]triazolo[1,5-c]quinazolin-5-yl]amino}-1,4-diazepan-5-one], the half-inhibitory concentration (IC50) in assay [1] stood at 0.236 µM; in assay [2] it was 8.37e-08 M.

Turning to `Nc1cccc(-c2nc3c4ccccc4nc(N[C@@H]4CNCCNC4=O)n3n2)c1` [Example 413, (6R)-6-{[2-(3-aminophenyl)[1,2,4]triazolo[1,5-c]quinazolin-5-yl]amino}-1,4-diazepan-5-one], the IC50 in assay [1] is 0.0621 µM; in assay [2], 8.94e-08 M.

For the compound `CC(C)Oc1ccc(-c2nc3c4ccccc4nc(N[C@@H]4CNCCNC4=O)n3n2)cc1` [Example 415, (6R)-6-[(2-{4-[(propan-2-yl)oxy]phenyl}[1,2,4]triazolo[1,5-c]quinazolin-5-yl)amino]-1,4-diazepan-5-one], the IC50 came to 0.00647 µM in assay [1] and 1.85e-08 M in assay [2].

Turning to `O=C1NCCNC[C@H]1Nc1nc2ccccc2c2nc(-c3cnn(CC4CC4)c3)nn12` [Example 416, (6R)-6-({2-[1-(cyclopropylmethyl)-1H-pyrazol-4-yl][1,2,4]triazolo[1,5-c]quinazolin-5-yl}amino)-1,4-diazepan-5-one], the figures for the IC50 in assay [1] and in assay [2] were 0.354 µM and 2.1e-06 M, respectively.

As for `Cn1cc(-c2nc3c4c(Cl)cccc4nc(N[C@@H]4CNCCNC4=O)n3n2)cn1` [Example 417], the values for the IC50 in assay [1] and in assay [2] were 7.3 µM and 1.11e-06 M, respectively.

On to `O=C1NCCNC[C@H]1Nc1nc2c(Cl)cccc2c2nc(-c3cccc(F)c3)nn12` [Example 419, (6R)-6-{[7-chloro-2-(3-fluorophenyl)[1,2,4]triazolo[1,5-c]quinazolin-5-yl]amino}-1,4-diazepan-5-one], for which the IC50 in assay [1] turned out to be 0.00346 µM; in assay [2] it was 3.49e-09 M.

As for `O=C1NCCNC[C@H]1Nc1nc2c(Cl)cccc2c2nc(-c3ccc(F)cc3)nn12` [Example 420, (6R)-6-{[7-chloro-2-(4-fluorophenyl)[1,2,4]triazolo[1,5-c]quinazolin-5-yl]amino]-1,4-diazepan-5-one], the IC50 was determined as 0.000887 µM in assay [1] and 9.36e-10 M in assay [2].

On to `COc1ccc(-c2nc3c4cccc(Cl)c4nc(N[C@@H]4CNCCNC4=O)n3n2)cc1` [Example 421, (6R)-6-{[7-chloro-2-(4-methoxyphenyl)[1,2,4]triazolo[1,5-c]quinazolin-5-yl]amino)-1,4-diazepan-5-one], for which the IC50 in assay [1] came to 0.00069 µM; in assay [2] it was 7.09e-10 M.

`COc1ccc(-c2nc3c4cccc(C(F)(F)F)c4nc(N[C@@H]4CNCCNC4=O)n3n2)cc1` [Example 422, (6R)-6-{[2-(4-methoxyphenyl)-7-(trifluoromethyl)[1,2,4]triazolo[1,5-c]quinazolin-5-yl]amino}-1,4-diazepan-5-one]: the IC50 in assay [1] was determined as 0.000927 µM; in assay [2], 3.61e-10 M.

As for `O=C1NCCNC[C@H]1Nc1nc2c(C(F)(F)F)cccc2c2nc(-c3ccc(F)cc3)nn12` [Example 423, (6R)-6-{[2-(4-fluorophenyl)-7-(trifluoromethyl)[1,2,4]triazolo[1,5-c]quinazolin-5-yl]amino}-1,4-diazepan-5-one], the half-inhibitory concentration (IC50) in assay [1] is 0.000349 µM; in assay [2], 2.81e-10 M.

`O=C1NCCNC[C@H]1Nc1nc2c(C(F)(F)F)cccc2c2nc(-c3cccc(F)c3)nn12` [Example 424, (6R)-6-{[2-(3-fluorophenyl)-7-(trifluoromethyl)[1,2,4]triazolo[1,5-c]quinazolin-5-yl]amino}-1,4-diazepan-5-one]: the 50% inhibitory concentration (IC50) in assay [1] amounted to 0.00169 µM; in assay [2] it was 5.89e-10 M.

As for `Cn1cc(-c2nc3c4cccc(C(F)(F)F)c4nc(N[C@@H]4CNCCNC4=O)n3n2)cn1` [Example 425, (6R)-6-{[2-(1-methyl-1H-pyrazol-4-yl)-7-(trifluoromethyl)[1,2,4]triazolo[1,5-c]quinazolin-5-yl]amino}-1,4-diazepan-5-one], the IC50 in assay [1] came out at 0.0239 µM; in assay [2], 6.84e-09 M.

`COc1ccc(-c2nc3c4cccc(F)c4nc(N[C@@H]4CNCCNC4=O)n3n2)cc1` [Example 426, (6R)-6-{[7-fluoro-2-(4-methoxyphenyl)[1,2,4]triazolo[1,5-c]quinazolin-5-yl]amino}-1,4-diazepan-5-one]: the IC50 turned out to be 0.0143 µM in assay [1] and 1.84e-08 M in assay [2].

As to `Cn1cc(-c2nc3c4cccc(F)c4nc(N[C@@H]4CNCCNC4=O)n3n2)cn1` [Example 428], the half-inhibitory concentration (IC50) in assay [1] was 0.561 µM; in assay [2] it was 2.44e-06 M.

In the case of `COc1ccc(-c2nc3c4cccc(C(C)C)c4nc(N[C@@H]4CNCCNC4=O)n3n2)cc1` [Example 429, (6R)-6-{[2-(4-methoxyphenyl)-7-(propan-2-yl)[1,2,4]triazolo[1,5-c]quinazolin-5-yl]amino}-1,4-diazepan-5-one], the IC50 in assay [1] is 0.0709 µM; in assay [2] it was 7.8e-09 M.

Source of the values: US20230113037A1 (Bayer Aktiengesellschaft, priority 2019, published 2023).
